# Results published in patent US20040132697A1, “Treatment of female sexual dysfunction” (Pfizer Inc., priority 2002, published 2004).
# Structures can show the parent of a compound that is named as a salt.
# Columns and labels:
# [1] = tested on: FSAD; details: Rosen, R. C. et al (1999) J. Sex Marital Therapy 25, 137-144; cited from earlier work
# [2] = tested on: anaesthetised rabbit model of female sexual arousal; test: Anaesthetised rabbit model of female sexual arousal: pelvic nerve stimulated genital blood flow (laser Doppler); type: in vivo; details: for Potentiation of pelvic nerve stimulated increases in vaginal blood flow (% increase over basal increase): i.v. infusion, n=4
# Source text: We have developed an animal model that mimics the physiological arousal response observed during female sexual arousal and directly reflects the clinical data obtained in human volunteers. The model uses Laser Doppler technologies to record small changes in vaginal and clitoral blood flow induced by pelvic nerve stimulation or vasoactive neurotransmitters. During sexual arousal, there is an increase in genital blood flow resulting from increased innervation from the pelvic nerve. The pelvic nerve-stimulated increase in vaginal and clitoral blood flow, observed in the animal model, represents the endogenous vascular effects observed during female sexual arousal. Therefore this model can be used to firstly, identify the mechanisms involved in the regulation of vaginal and clitoral blood flow and secondly, to validate novel approaches for the enhancement of genital blood flow.
# (a) The Experimental Details are Described in European patent application EP 1 097 719 A1, Paragraphs [0495]-[0500]
# (b) Infusion of Test Compound to Achieve Free Plasma Concentration Equivalent to 0.1 to 100 Times the pA2 α1A and/or α1L Adrenergic Receptors.
# To achieve steady state plasma concentrations of the test compound, a loading dose was administered followed by infusion of a steady state dose. The test compound was made up in acidified saline (5% 1M HCl in saline) and details of the infusion protocols are given in the Table below. Test compound and vehicle controls were infused at the same rate. The test compound was infused for 15 minutes prior to pelvic nerve stimulation.
# All data are reported as mean±s.e.m. (Standard error of the mean). Significant changes were identified using Student's t-tests (independent).
# Compound 1, a potent and selective α1A and/or α1L adrenergic receptor antagonist, enhanced pelvic nerve stimulated (PNS) increases in genital blood flow in the anaesthetised rabbit model of sexual arousal. Repetitive PNS at 15 minute intervals induced reproducible increases in genital blood flow (Open Bar). […] The percentage increase over basal stimulations are showin in table 1 below. […] Data expressed as mean±sem (n=4); all changes were monitored using laser Doppler technologies.
Structure (SMILES),Effect on FSAD in small pilot study [1],Clitoral blood flow ([2]; data not shown),Cardiovascular effects ([2]; during infusion),Potentiation of pelvic nerve stimulated increases in vaginal blood flow (% increase over basal increase) ([2]; free plasma concentration 0.1 × pA2 α1A and/or α1L) [%],Potentiation of pelvic nerve stimulated increases in vaginal blood flow (% increase over basal increase) ([2]; free plasma concentration 1 × pA2 α1A and/or α1L) [%],Potentiation of pelvic nerve stimulated increases in vaginal blood flow (% increase over basal increase) ([2]; free plasma concentration 10 × pA2 α1A and/or α1L) [%],Potentiation of pelvic nerve stimulated increases in vaginal blood flow (% increase over basal increase) ([2]; free plasma concentration 100 × pA2 α1A and/or α1L) [%],"Pelvic nerve stimulated (PNS) increases in genital blood flow ([2]; submaximal stimulation (eg 4 Hz), versus time matched or vehicle controls)"
Cc1ccc(N(CC2=NCCN2)c2cccc(O)c2)cc1 [Phentolamine mesylate],mild improvements,–,–,–,–,–,–,–
"COc1cc(C2CC2)c2c(=O)[nH]c(N3CCc4nc(CN5CCOCC5)ccc4C3)nc2c1 [Compound 1, 5-cyclopropyl-7-methoxy-2-(2-(4-morpholinylmethyl)-7,8-dihydro[1,6]naphthyridin-6(5H)-yl)-4(3H)-quinazolinone]",–,increased,No significant cardiovascular effects,39,102,104,213,enhanced
